{"source": "patent US20250092058A1", "about": "(priority 2018, published 2025)", "key": {"HepG2": {"system": "HepG2", "assay_type": "cell-based, human", "conditions": "Table 13; MTT; HepG2 liver cancer"}, "A549": {"system": "A549", "assay_type": "cell-based, human", "conditions": "Table 13; MTT; A549 lung cancer"}, "FL118 MTD in SCID mice": {"test": "FL118 MTD in SCID mice", "assay_type": "in vivo"}, "PANC1 and Mia2 cells": {"system": "PANC1 and Mia2 cells", "test": "Western blots of caspase-3 activation and PARP cleavage", "assay_type": "cell-based, human", "conditions": "24 h, 10-500 nM", "experimental": "Western blotting/Immunoblotting. […] Fifty μg total protein from each sample were heated at 95° C. for 5 minutes after mixing with equal volume of 2×SDS loading buffer. Samples were separated on 12-15% SDS-polyacrylamide gel electrophoresis (SDS-PAGE) gels and electrotransferred to Pure Nitrocellulose Membranes (Bio-Rad, Hercules, CA). […] Next, the membrane was incubated with different primary antibodies in TBS-T containing 5% BSA overnight at 4° C. in the range of dilutions from 1:500 to 1:2000. After washing with TBS-T, the membrane was incubated in TBS-T buffer containing 5% skim milk and corresponding secondary antibody (1:5000) for 45-60 minutes at room temperature with shaking. Protein of interest was detected using Western Lightning Plus—ECL (Perkin Elmer, Waltham, MA) and visualized by various times (3-120 seconds) of exposure. Actin was detected as the internal control to normalize total protein loading for each sample.\n(§1) Next, we determined whether FL118-mediated inhibition of antiapoptotic proteins and induction of pro-apoptotic proteins shown in FIG. 1 would be accompanied by induction of apoptosis and cell killing."}, "PANC1, Mia2, BxPC-3": {"system": "PANC1, Mia2, BxPC-3", "test": "MTT viability of pancreatic cancer cells", "assay_type": "cell-based, human", "conditions": "72 h, nM level", "experimental": "MTT assays. […] Each experiment was performed at least in triplicate.\nas §1"}, "PANC1-GFPcODC cells": {"system": "PANC1-GFPcODC cells", "test": "Trypan blue exclusion, PANC1-GFPcODC cells", "assay_type": "cell-based, human", "conditions": "4-day treatment; 20 μM cisplatin, 10 nM FL118, or both", "source_text": "Generation of A2780-GFPcODC, A2780CP-GFPcODC and PANC1GFPcODC cells and fluorescence microscopy to detect stem-like and drug resistant green cells. The retroviral expression vector pQCXIN-ZsGreen-cODC (ornithine decarboxylase), containing a green fluorescence marker, was kindly provided by Dr. Frank Pajonk (Vlashi E, et al., In vivo imaging, tracking, and targeting of cancer stem cells. J Natl Cancer Inst. 2009; 101: 350-9). The retroviral particles collected from packaging cells that transfected with the above vector were infected into A2780, A2780CP and PANC1 cells, respectively. The transfected cell pool was used for experiments. […] Cell images were acquired digitally using the Olympus IX73 Inverted Score s (Olympus). Percentages of living cells were obtained from the average of the total cells counted from 10 microscopic fields.\nNext, we applied the same system to generate pancreatic cancer PANC1-GFPcODC cells."}, "PANC1 cells": {"system": "PANC1 cells", "test": "Matrigel CSC sphere formation", "assay_type": "cell-based, human", "conditions": "1, 10 and 100 nM, 20 days", "experimental": "Matrigel stem cell cultural assay. […] Spheres were maintained in Improved MEM containing 20 ng/ml epidermal growth factor, 10 ng/ml basic fibroblast growth factor, […] insulin and 0.4% Bovine Serum Albumin. PANC1cells were plated at a density of 1000 cells/well in 24-well ultralow attachment plates (Sigma-Aldrich). Briefly, 1000 PANC1 cells were suspended in […] medium and mixed thoroughly with […] BD Matrigel™ (BD Bioscience, San Jose, CA, USA). […] Upon solidification, FL118 treatment was administered. Spheres in each well were set in the plate to grow for 20 days and then quantitated visually under a microscope at the magnification of 10×.\nTo further confirm these findings, we alternatively used the typical matrigel-based CSC sphere formation assay which is know to more closely mimic in vivo situations. In this assay only drug resistant stem-like cancer cells are able to form spheres. […] We performed colony formation of CD44 stem cell marker-positive cells using the stem-cell culture condition. […] Thus, the GFPcODC-positive cell model may be an extremely drug resistant cell model or a less actual cell mimic system after transfection of the GFPcODC-expressing vector and selection process for obtaining GFPcODC-expressing cells, which may not fully mimic the CD44 stem cell marker-positive drug resistant cells. […]"}, "PDX17624": {"system": "PDX17624", "test": "Pancreatic cancer PDX17624 in SCID mice", "assay_type": "in vivo", "conditions": "5 mg/kg ip qw×4", "experimental": "(§2) Human pancreatic cancer patient-derived xenograft (PDX) tumor mouse model and treatment. Experiments followed the IACUC-approved mouse protocol. Briefly, human PDAC PDX tumors maintained on SCID mice were isolated, and a piece of non-necrotic tumor tissues (30-40 mg) were subcutaneously transplanted into the flank area of female SCID mice. […] In this study, we used the timesaving intraperitoneal (ip) route for drug administration. […] The formulation process was described in detail in our previous patent (PCT/US2011/058558). […] Tumor length (L) and width (W) were measured using digital vernier calipers 1-3 times per week until the end of experimental studies. The tumor volume (v) was calculated using the formula: v=0.5 (L×W^2). Then the tumor size was divided by the day 0 tumor size as percentage tumor size versus day 0. The mean tumor volume ± standard deviation (SD) at each time point was derived from 5 mice in each group. The tumor curves were made using Sigma Plot software.\n(§3) It has been recently documented that pancreatic cancer PDXs retain active paracrine/Hedgehog signaling, and desmoplasia is active in PDX tumor mouse models."}, "PDX10978": {"system": "PDX10978", "test": "Pancreatic cancer PDX10978 in SCID mice", "assay_type": "in vivo", "experimental": "as §2, §3"}, "[1]": {"conditions": "calculated from SCID mouse MTD"}}, "data": [{"smiles": "CC[C@@]1(O)C(=O)OCc2c1cc1n(c2=O)Cc2cc3cc4c(cc3nc2-1)OCO4", "note": "[FL118, 10,11-methylenedioxy-camptothecin]", "values": [{"measurement": "IC50", "setting": "HepG2", "result": "68.5 ± 6.7", "unit": "nM"}, {"measurement": "IC50", "setting": "A549", "result": "81.8 ± 14", "unit": "nM"}, {"measurement": "maximum tolerated dose (MTD)", "setting": "FL118 MTD in SCID mice; oral formulation, tumor-bearing SCID mice, qw×4", "result": 10, "unit": "mg/kg"}, {"measurement": "MTD", "setting": "FL118 MTD in SCID mice; oral, q1d×5 and q2d×5", "result": "~1.5", "unit": "mg/kg"}, {"measurement": "MTD", "setting": "FL118 MTD in SCID mice; two doses in SCID mice, estimated", "result": 12, "unit": "mg/kg/dose"}, {"measurement": "caspase-3 activation and PARP cleavage", "setting": "PANC1 and Mia2 cells", "result": "strongly induces caspase-3 activation and PARP cleavage"}, {"measurement": "pancreatic cancer cell viability", "setting": "PANC1, Mia2, BxPC-3", "result": "effectively inhibited pancreatic cancer cell viability"}, {"measurement": "cell death", "setting": "PANC1-GFPcODC cells", "result": "~18", "unit": "%"}, {"measurement": "sphere formation", "setting": "PANC1 cells", "result": "high efficacy in inhibiting sphere formation"}, {"measurement": "antitumor efficacy", "setting": "PDX17624", "result": "able to eliminate these PDX tumors after one cycle of treatment"}, {"measurement": "antitumor efficacy", "setting": "PDX10978; 5 mg/kg ip qw×4", "result": "only able to delay PDX10978 tumor growth"}, {"measurement": "antitumor efficacy, single agent", "setting": "PDX10978; FL118 0.75 mg/kg or gemcitabine 60 mg/kg ip qw×4", "result": "only delayed tumor growth"}, {"measurement": "calculated FL118 MTD for dogs", "setting": "[1]", "result": 2, "unit": "mg/kg"}]}]}
